Here are results for 16 molecules from PubChem BioAssay AID385 (SGCOxCompounds, 2006).

This assay deals with Casein kinase I isoform gamma-3 (Homo sapiens) (UniProt Q9Y6M4). The assay is described as follows: ligand binding to human CK1 gamma-3 kinase – biophysical, DSF, SYPRO orange, recombinant protein (AID 385). To be noted: recombinant CSNK1G3, DSF thermal shift, at 10 µM, protein 2 µM, buffer 10 mM HEPES, pH 7.5, NaCl 150 mM, stronger effect = higher value.
Chain of Casein kinase I isoform gamma-3 (Homo sapiens) (Q9Y6M4 whole entry, looked up, canonical isoform): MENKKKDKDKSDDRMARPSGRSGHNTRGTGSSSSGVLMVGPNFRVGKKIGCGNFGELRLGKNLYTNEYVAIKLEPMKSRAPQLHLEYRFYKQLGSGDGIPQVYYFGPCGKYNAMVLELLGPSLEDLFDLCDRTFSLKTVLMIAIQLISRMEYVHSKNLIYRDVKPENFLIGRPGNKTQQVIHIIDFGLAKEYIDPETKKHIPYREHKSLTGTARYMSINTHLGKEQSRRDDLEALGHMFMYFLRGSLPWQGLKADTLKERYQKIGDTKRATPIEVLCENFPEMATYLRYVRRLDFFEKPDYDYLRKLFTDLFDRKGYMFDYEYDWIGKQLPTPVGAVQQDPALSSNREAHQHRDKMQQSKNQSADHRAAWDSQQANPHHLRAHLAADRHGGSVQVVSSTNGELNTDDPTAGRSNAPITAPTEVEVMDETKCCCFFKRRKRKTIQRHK

Turning to `Nc1nc(Nc2ccc(F)cc2)sc1C(=O)c1ccccc1`, the Tm shift is 3.5 C.
Regarding `Nc1nc(Nc2cccc(Cl)c2)sc1C(=O)c1ccc(F)cc1`, the Tm shift is 4.8 C.
With `NC(=O)c1ccc(-c2nc(-c3ccc4c(c3)OCCO4)c(-c3ccccn3)[nH]2)cc1` the figure was 6.7 C.
On to `CCN(CC)CCNC(=O)c1c(C)[nH]c(/C=C2\C(=O)Nc3ccc(Cl)cc32)c1C`, for which the Tm shift was 4 C.
As to `CSc1nc(-c2ccnc(NC(C)c3ccccc3)c2)c(-c2ccc(F)cc2)[nH]1` (stereo unspecified), the Tm shift was 3.5 C.
Take `COc1ccc(Nc2nc(N)c(C(=O)c3ccc(OC)cc3)s2)cc1`: the Tm shift was 4.9 C.
Consider `O=Nc1c(-c2c(O)[nH]c3ccc(S(O)(O)O)cc23)[nH]c2ccccc12`, for which the Tm shift is 3.8 C.
Regarding `O=c1[nH]c(O)c2c1c1c3ccccc3nc1n1cncc21`, the Tm shift was 3.5 C.
In the case of `CCn1cnc2c(Nc3cccc(Cl)c3)nc(N[C@@H]3CCCC[C@@H]3N)nc21`, the Tm shift is 5.5 C.
Regarding `Nc1nc(Nc2ccccc2)sc1C(=O)c1ccc(F)cc1`, the Tm shift was 3.3 C.
With `COc1ccc(Nc2nc(N)c(C(=O)c3ccc(Cl)cc3)s2)cc1` the figure was 3.1 C.
With `CC(C)n1cnc2c(Nc3cccc(Cl)c3)nc(NCCO)nc21` the figure was 7 C; with `NC1=N/C(=C2/CCNC(=O)c3[nH]c(Br)cc32)C(=O)N1`, 3.5 C.
`Nc1nc(Nc2ccc(S(N)(=O)=O)cc2)nn1C(=S)Nc1c(F)cccc1F`: the Tm shift is 5.4 C.
`Nc1nc(Nc2ccccc2F)sc1C(=O)c1ccc(Br)cc1`: the Tm shift is 3.4 C.
With `N#C/C(=C1\Nc2ccccc2S1)c1ccnc(NCCc2cccnc2)n1`, the Tm shift was 3.5 C.
